According to paper PMC11995724, “Antibiotic target discovery by integrated phenotypic and activity-based profiling of electrophilic fragments” (Cell chemical biology, 2025):
Counter-ions that a name gives are not always drawn.

Assay: in vitro
Settings: human, hek293t cells
Procedure: Mammalian cytotoxicity measurement was performed using Cell Titer-Glo 2.0 Cell Viability Assay (Promega, G9243) according to the manufacturer protocol. In brief, mammalian cells were seeded into 384-well white plates (Greiner, 781080) and incubated at 37°C for one day. Compounds from the Cys-Library were dispensed into the assay plate using epMotion 96. The plates were then incubated at 37°C for two days. An equal volume of Cell Titer-Glo 2.0 reagent was added into each well of the assay plate using epMotion 96 and incubated at 22°C for 10 min, followed by luminescence measurement using a Cytation 5 plate reader (BioTek).

SMILES: O=C(CCl)NCc1cnn(-c2ccccc2)n1 [6-J03, 2-chloro-N-[(2-phenyl-2H-1,2,3-triazol-4-yl)methyl]acetamide]
- viability at 48 h, 25 µM: 1.68%

SMILES: Cc1ccc(NC(=O)NC(=O)C(C)Cl)c(C)c1 (stereo not drawn) [6-J04, 3-(2-chloropropanoyl)-1-(2,4-dimethylphenyl)urea]
- viability at 48 h, 25 µM: 96.6%

SMILES: Cc1cccc(CN(C(=O)CCl)C(C)C)c1 [6-J05, 2-chloro-N-[(3-methylphenyl)methyl]-N-(propan-2-yl)acetamide]
- viability at 48 h, 25 µM: 0.679%

SMILES: COc1ccccc1N=Nc1ccc(NC(=O)CCl)cc1C [6-J06, 2-chloro-N-{4-[2-(2-methoxyphenyl)diazen-1-yl]-3-methylphenyl}acetamide]
- viability at 48 h, 25 µM: 0.765%

SMILES: CC(=O)N(Cc1ncc(C(C)C)o1)C1CCN(C(=O)C(C)Cl)C1 (stereo not drawn) [6-J07, N-[1-(2-chloropropanoyl)pyrrolidin-3-yl]-N-{[5-(propan-2-yl)-1,3-oxazol-2-yl]methyl}acetamide]
- viability at 48 h, 25 µM: 103%

SMILES: CC(Cl)C(=O)Nc1ccccc1OC(F)F (stereo not drawn) [6-J08, 2-chloro-N-[2-(difluoromethoxy)phenyl]propanamide]
- viability at 48 h, 25 µM: 115%

SMILES: CC(Cl)C(=O)N(C)Cc1nccn1Cc1ccccc1 (stereo not drawn) [6-J09, N-[(1-benzyl-1H-imidazol-2-yl)methyl]-2-chloro-N-methylpropanamide]
- viability at 48 h, 25 µM: 91.5%

SMILES: O=C(CCl)Nc1cc(-c2ccc3c(c2)CCC3)nn1-c1ccccc1 [6-J10, 2-chloro-N-[3-(2,3-dihydro-1H-inden-5-yl)-1-phenyl-1H-pyrazol-5-yl]acetamide]
- viability at 48 h, 25 µM: 0.354%

SMILES: CCN(C(=O)CCl)C(c1ccccc1)c1ccc(F)cc1 (stereo not drawn) [6-J11, 2-chloro-N-ethyl-N-[(4-fluorophenyl)(phenyl)methyl]acetamide]
- viability at 48 h, 25 µM: 0.263%

SMILES: O=C(CCl)Nc1cc(S(=O)(=O)N2CCOCC2)ccc1O [6-J12, 2-chloro-N-[2-hydroxy-5-(morpholine-4-sulfonyl)phenyl]acetamide]
- viability at 48 h, 25 µM: 116%

SMILES: COCC1(NC(=O)C(C)Cl)CC=CCC1 (stereo not drawn) [6-J13, 2-chloro-N-[1-(methoxymethyl)cyclohex-3-en-1-yl]propanamide]
- viability at 48 h, 25 µM: 107%

SMILES: CC(Cl)C(=O)N(C)C(C)c1cccc(NC(=O)c2ccccc2)c1 (stereo not drawn) [6-J14, N-{3-[1-(2-chloro-N-methylpropanamido)ethyl]phenyl}benzamide]
- viability at 48 h, 25 µM: 111%

SMILES: CC(Cl)C(=O)N1CC(Oc2ccc(C#N)cc2)C1 (stereo not drawn) [6-J15, 4-{[1-(2-chloropropanoyl)azetidin-3-yl]oxy}benzonitrile]
- viability at 48 h, 25 µM: 97.1%

SMILES: CC(Cl)C(=O)NC1CCCn2nccc21 (stereo not drawn) [6-J16, 2-chloro-N-{4H,5H,6H,7H-pyrazolo[1,5-a]pyridin-4-yl}propanamide]
- viability at 48 h, 25 µM: 113%

SMILES: CC(Cl)C(=O)N1CCNC(=O)C1c1cccs1 (stereo not drawn) [6-J17, 4-(2-chloropropanoyl)-3-(thiophen-2-yl)piperazin-2-one]
- viability at 48 h, 25 µM: 106%

SMILES: CC(Cl)C(=O)N1CCC(c2nc3cc(F)ccc3s2)CC1 (stereo not drawn) [6-J18, 2-chloro-1-[4-(5-fluoro-1,3-benzothiazol-2-yl)piperidin-1-yl]propan-1-one]
- viability at 48 h, 25 µM: 78.9%

SMILES: CC(Cl)C(=O)NC1CC(=O)N(Cc2ccccc2C(F)(F)F)C1 (stereo not drawn) [6-J19, 2-chloro-N-(5-oxo-1-{[2-(trifluoromethyl)phenyl]methyl}pyrrolidin-3-yl)propanamide]
- viability at 48 h, 25 µM: 108%

SMILES: CC(Cl)C(=O)N(C)C1CCN(c2ccccn2)CC1 (stereo not drawn) [6-J20, 2-chloro-N-methyl-N-[1-(pyridin-2-yl)piperidin-4-yl]propanamide]
- viability at 48 h, 25 µM: 106%

SMILES: CC(Cl)C(=O)N(C)C1CCS(=O)(=O)CC1 (stereo not drawn) [6-J21, 2-chloro-N-(1,1-dioxo-1lambda6-thian-4-yl)-N-methylpropanamide]
- viability at 48 h, 25 µM: 99.1%

SMILES: CC(Cl)C(=O)N1CCCC(CNC(=O)Nc2ccc(F)cc2)C1 (stereo not drawn) [6-J22, 3-{[1-(2-chloropropanoyl)piperidin-3-yl]methyl}-1-(4-fluorophenyl)urea]
- viability at 48 h, 25 µM: 105%

SMILES: Cc1ccsc1-c1nnc(NC(=O)CCl)o1 [6-K03, 2-chloro-N-[5-(3-methylthiophen-2-yl)-1,3,4-oxadiazol-2-yl]acetamide]
- viability at 48 h, 25 µM: 72.7%

SMILES: CC1CCCN(Cc2ccc(CNC(=O)CCl)cc2)C1 (stereo not drawn) [6-K04, 2-chloro-N-({4-[(3-methylpiperidin-1-yl)methyl]phenyl}methyl)acetamide hydrochloride]
- viability at 48 h, 25 µM: 56.4%

SMILES: CCc1ccc(CNC(=O)CCl)s1 [6-K05, 2-chloro-N-[(5-ethylthiophen-2-yl)methyl]acetamide]
- viability at 48 h, 25 µM: 5.18%

SMILES: Cc1cc(C)c(CCNC(=O)CCl)c(C)c1 [6-K06, 2-chloro-N-[2-(2,4,6-trimethylphenyl)ethyl]acetamide]
- viability at 48 h, 25 µM: 14.3%

SMILES: O=C(CCl)Nc1ccc(OCc2ccccc2)cc1 [6-K07, N-[4-(benzyloxy)phenyl]-2-chloroacetamide]
- viability at 48 h, 25 µM: 0.0552%

SMILES: O=C(CCl)NC(c1ccc(F)cc1)C1CCCC1 (stereo not drawn) [6-K08, 2-chloro-N-[cyclopentyl(4-fluorophenyl)methyl]acetamide]
- viability at 48 h, 25 µM: 1.04%

SMILES: CC(Cl)C(=O)Nc1c(Cl)cc(Cl)cc1Cl (stereo not drawn) [6-K09, 2-chloro-N-(2,4,6-trichlorophenyl)propanamide]
- viability at 48 h, 25 µM: 115%

SMILES: O=C(CCl)NCc1ccccc1C(F)(F)F [6-K10, 2-chloro-N-{[2-(trifluoromethyl)phenyl]methyl}acetamide]
- viability at 48 h, 25 µM: 2.67%

SMILES: CCC(C)c1ccccc1NC(=O)CCl (stereo not drawn) [6-K11, N-[2-(butan-2-yl)phenyl]-2-chloroacetamide]
- viability at 48 h, 25 µM: 0.743%

SMILES: COc1cc2c(cc1OC)C(c1ccccc1)N(C(=O)CCl)CC2 (stereo not drawn) [6-K12, 2-chloro-1-(6,7-dimethoxy-1-phenyl-1,2,3,4-tetrahydroisoquinolin-2-yl)ethan-1-one]
- viability at 48 h, 25 µM: 0.105%

SMILES: O=C(CCl)Nc1ccc(Cl)c(S(=O)(=O)N2CCOCC2)c1 [6-K13, 2-chloro-N-[4-chloro-3-(morpholine-4-sulfonyl)phenyl]acetamide]
- viability at 48 h, 25 µM: 0.541%

SMILES: O=C(CCl)NCc1ccccc1CN1CCCC1=O [6-K14, 2-chloro-N-({2-[(2-oxopyrrolidin-1-yl)methyl]phenyl}methyl)acetamide]
- viability at 48 h, 25 µM: 2.03%

SMILES: CC(Cl)C(=O)Nc1ccc(F)cc1 (stereo not drawn) [6-K15, 2-chloro-N-(4-fluorophenyl)propanamide]
- viability at 48 h, 25 µM: 113%

SMILES: CC(C#N)CSc1ccccc1NC(=O)CCl (stereo not drawn) [6-K16, 2-chloro-N-{2-[(2-cyano-2-methylethyl)sulfanyl]phenyl}acetamide]
- viability at 48 h, 25 µM: 1.3%

SMILES: O=C(CCl)Nc1nnc(-c2ccccc2Cl)s1 [6-K17, 2-chloro-N-[5-(2-chlorophenyl)-1,3,4-thiadiazol-2-yl]acetamide]
- viability at 48 h, 25 µM: 0.539%

SMILES: CC(C)c1ccc(CN(C(=O)CCl)C2CC2)cc1 [6-K18, 2-chloro-N-cyclopropyl-N-{[4-(propan-2-yl)phenyl]methyl}acetamide]
- viability at 48 h, 25 µM: 1.65%

SMILES: Cc1cc(CO[C@H]2CC[C@H](NC(=O)CCl)CC2)on1 [6-K19, 2-chloro-N-[(1r,4r)-4-[(3-methyl-1,2-oxazol-5-yl)methoxy]cyclohexyl]acetamide]
- viability at 48 h, 25 µM: 88.1%

SMILES: O=C(CCl)NCCc1nc2ccccc2s1 [6-K20, N-[2-(1,3-benzothiazol-2-yl)ethyl]-2-chloroacetamide]
- viability at 48 h, 25 µM: 98%

SMILES: CC(Cl)C(=O)NC1CC=CCC1 (stereo not drawn) [6-K21, 2-chloro-N-(cyclohex-3-en-1-yl)propanamide]
- viability at 48 h, 25 µM: 114%
